Reference: US11534457B2, “Use of dextran sulfate” (priority 2017, dated 2022)
Entries after “also recorded” stand apart in the source; their conditions may differ.

Tests used:
[1] = test system: 4H system [HUVEC+(IL-4 and histamine)]; test: BioMAP 4H system; format: cell-based, Human
Description: (§1) In this study LMW-DS was characterized by profiling in the BioMAP® Diversity PLUS panel. The BioMAP® panel consists of human primary cell-based systems designed to model different aspects of the human body in an in vitro format. The 12 systems in the BioMAP® Diversity PLUS panel (Table 32) allow test agent characterization in an unbiased way across a broad set of systems modeling various human disease states. The BioMA®P systems are constructed with one or more primary cell types from healthy human donors, with stimuli, such as cytokines or growth factors, added to capture relevant signaling networks that naturally occur in human tissue or pathological conditions. […]
(§2) Systems are derived from either single cell types or co-culture systems. […] Test agents prepared in either DMSO (small molecules; final concentration 0.1%) or PBS (biologics) are added at the indicated concentrations 1-hr before stimulation, and remain in culture for 24-hrs or as otherwise indicated (48-hrs, MyoF system; 72-hrs, BT system (soluble readouts); 168-hrs, BT system (secreted IgG)). […] Soluble factors from supernatants are quantified using either HTRF® detection, bead-based multiplex immunoassay or capture ELISA. Overt adverse effects of test agents on cell proliferation and viability (cytotoxicity) are detected by sulforhodamine B (SRB) staining, for adherent cells, and alamarBlue® reduction for cells in suspension. […]

[2] = test system: HDF3CGF system [HDFn+(IL-1β, TNFα, IFNγ, EGF, bFGF and PDGF-BB)]; test: BioMAP HDF3CGF system; format: cell-based, Human
Description: as §1, with “conditions. Vascular biology is modeled in both a Th1 (3C system) and a Th2 (4H system) inflammatory environment, as well as in a Th1 inflammatory state specific to arterial smooth muscle cells (CASM3C system).” for “conditions.”
as §2, with “suspension. For proliferation assays, individual cell types are cultured at subconfluence and measured at time points optimized for each system (48-hrs: 3C and CASM3C systems; 72-hrs: BT and HDF3CGF systems; 96-hrs: SAg system).” for “suspension.”

With “low molecular weight dextran sulfate [LMW-DS]” the Increased biomarker activity [1] was “uPAR”, the Decreased biomarker activity ([2]; HDF3CGF system) was “VCAM-1, IP-10,; also recorded: ITAC, MIG, M-CSF” and the Increased biomarker activity ([2]; HDF3CGF system) was “EGFR, MMP-1,; also recorded: PAI-1”. For the same substance, the “key inflammation biomarkers including MIG, VCAM, IP-10 and ITAC” value ([2]; all tested concentrations) was “decreased over all tested concentrations”.
